# According to PMC6573034 (Nature Communications, 2019):
# Columns and labels:
# [1] = system: MCT4 (SLC16A3); settings: MCT4, L-lactate; cited from earlier work
# [2] = target: T1, SfMCT (Syntrophobacter fumaroxidans, UniProt A0LNN5); format: cell-based; settings: competitor 1 mM
# T1 construct: expressed in transfected cells; host or cells: E. coli JA202 (MC4100 glcA::cat lldP::kan), plasmid pEXT20-SfMCT-3C-10His
# T1 sequence (A0LNN5 1-412): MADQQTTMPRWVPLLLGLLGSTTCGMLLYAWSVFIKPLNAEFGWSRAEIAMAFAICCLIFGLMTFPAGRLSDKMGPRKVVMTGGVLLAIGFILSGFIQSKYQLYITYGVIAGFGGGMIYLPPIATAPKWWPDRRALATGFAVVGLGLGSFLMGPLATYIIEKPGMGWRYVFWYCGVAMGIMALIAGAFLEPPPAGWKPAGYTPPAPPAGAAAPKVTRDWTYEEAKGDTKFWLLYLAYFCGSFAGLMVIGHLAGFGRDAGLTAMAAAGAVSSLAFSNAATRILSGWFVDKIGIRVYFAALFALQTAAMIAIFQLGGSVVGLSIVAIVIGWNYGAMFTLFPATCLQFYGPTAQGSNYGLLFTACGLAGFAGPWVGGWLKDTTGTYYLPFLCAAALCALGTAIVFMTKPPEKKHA
# Protocol: The cultures were grown at 37 °C and 180 r.p.m. in an incubator shaker (Multitron, Infors HT). Protein expression was induced at OD600 ~0.5 by addition of IPTG to a final concentration of 0.25 mM. After 4 h, bacteria were pelleted (5,200 × g, 10 min, room temperature) and resuspended in uptake buffer (20 mM Bis-Tris propane-HCl (pH 6.7), 250 mM KCl) to a bacteria density of OD600 12. […] Furthermore, [3-3 H] propionic acid sodium salt ([^3H]propionate, American Radiolabeled Chemicals, specific activity 30 Ci/mmol), n-[2,3-3 H] butyric acid sodium salt ([^3H]butyrate, American Radiolabeled Chemicals, specific activity 120 Ci/mmol), and [1–14 C] pyruvic acid sodium salt ([^14C]pyruvate, specific activity 0.055 Ci/mmol American Radiolabeled Chemicals) were also used for transport experiments. […] Uptake experiments were performed in 2 ml reaction tubes (Eppendorf) at 30 °C under agitation (1,000 r.p.m., Thermomixer compact, Eppendorf). […] Bacteria were immediately pelleted by centrifugation (21,000 × g, 4 min, room temperature) and washed two times with 900 μl stop buffer. Finally, bacteria were lyzed in 50 μl 5% (w/v) sodium dodecylsulfate and transferred into a white 96-well plate (Optiplate, PerkinElmer). 150 µl of scintillation cocktail (MicroScint 40, PerkinElmer) were added before measuring each reaction for 2 min with a scintillation counter (TopCount NXT, PerkinElmer). For data analysis, the signal of the empty vector was subtracted from the transporter signal. […] Cpm values of each experiment were normalized with respect to the determined upper plateau value, i.e., the fitted upper plateau value corresponds to 100%. The arithmetic average of three independent experiments was calculated. Three independent and normalized pH-dependence curves were then averaged. For data analysis Prism6 (GraphPad Software) was used. […] Equal amounts of bacteria expressing SfMCT variants were loaded on 14% SDS/polyacrylamide gels. His-tagged transporters were detected using an anti-His5 (Qiagen, catalogue number 34660, primary antibody) at a dilution of 1:3,000 and a goat anti-mouse IgG (H + L) HRP conjugate antibody (Biorad, catalogue number 172-1011, secondary antibody) at a dilution of 1:2,500.
# [3] = target: T2, SfMCT R256D (Syntrophobacter fumaroxidans, UniProt A0LNN5, R256D); assay: [14C]L-lactate in vivo uptake assay, mutant R256D; format: cell-based; settings: R256D versus WT
# T2 construct: expressed in transfected cells; host or cells: E. coli JA202 (MC4100 glcA::cat lldP::kan), plasmid pEXT20-SfMCT-3C-10His
# T2 sequence (A0LNN5 whole entry R256D): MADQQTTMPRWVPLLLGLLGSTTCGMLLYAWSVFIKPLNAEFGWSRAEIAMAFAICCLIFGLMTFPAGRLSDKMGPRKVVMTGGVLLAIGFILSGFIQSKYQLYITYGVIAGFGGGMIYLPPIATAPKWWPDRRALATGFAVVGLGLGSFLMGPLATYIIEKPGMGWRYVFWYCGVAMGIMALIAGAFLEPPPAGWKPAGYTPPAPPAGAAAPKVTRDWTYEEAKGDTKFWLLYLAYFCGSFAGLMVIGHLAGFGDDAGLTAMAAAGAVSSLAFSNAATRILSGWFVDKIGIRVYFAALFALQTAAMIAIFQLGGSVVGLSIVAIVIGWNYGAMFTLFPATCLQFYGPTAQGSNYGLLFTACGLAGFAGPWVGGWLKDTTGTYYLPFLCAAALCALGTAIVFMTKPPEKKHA
# Protocol: The cultures were grown at 37 °C and 180 r.p.m. in an incubator shaker (Multitron, Infors HT). Protein expression was induced at OD600 ~0.5 by addition of IPTG to a final concentration of 0.25 mM. After 4 h, bacteria were pelleted (5,200 × g, 10 min, room temperature) and resuspended in uptake buffer (20 mM Bis-Tris propane-HCl (pH 6.7), 250 mM KCl) to a bacteria density of OD600 12. […] Furthermore, [3-3 H] propionic acid sodium salt ([^3H]propionate, American Radiolabeled Chemicals, specific activity 30 Ci/mmol), n-[2,3-3 H] butyric acid sodium salt ([^3H]butyrate, American Radiolabeled Chemicals, specific activity 120 Ci/mmol), and [1–14 C] pyruvic acid sodium salt ([^14C]pyruvate, specific activity 0.055 Ci/mmol American Radiolabeled Chemicals) were also used for transport experiments. […] Cpm values of each experiment were normalized with respect to the determined upper plateau value, i.e., the fitted upper plateau value corresponds to 100%. The arithmetic average of three independent experiments was calculated. […] His-tagged transporters were detected using an anti-His5 (Qiagen, catalogue number 34660, primary antibody) at a dilution of 1:3,000 and a goat anti-mouse IgG (H + L) HRP conjugate antibody (Biorad, catalogue number 172-1011, secondary antibody) at a dilution of 1:2,500.
compound,measurement,setting,value
C[C@H](O)C(=O)O [L-lactate],Km,[1],20 to 35 mM
same,competition with [14C]L-lactate uptake (in words),[2],strongest competition
same,increase of [14C]L-lactate transport,[3],~ 2.5 fold
